Results reported in patent publication US20100098737A1, “METHODS AND COMPOSITIONS FOR DELIVERY OF GLYCOPEPTIDE ANTIBIOTICS TO MEDICAL DEVICE SURFACES” (priority 2008, published 2010).
Where two headings read alike, the source gives them in different places. *1 amine or outer side, *2 acyl side, *3 side chain or, on linkers, in order; H or OH if unused. Bridges are numbered along the chain shown (N, C = ends). Where no end group is shown, it is not given here. [ ]: non-standard residue; d: D form. The star is where a group is joined. (miniPEG)2 = linker of two miniPEG units, each HN-CH2CH2-O-CH2CH2-O-CH2-C(=O), O=C(COCCOCCN[*:1])NCCOCCOCC(=O)[*:2]; Myristoyl = CCCCCCCCCCCCCC(=O)*; Aun = NCCCCCCCCCCC(=O)O; Ahx = NCCCCCC(=O)O

Experiments:
[1] = tested on: binding between vancomycin and a peptide comprising SEQ ID NO:1; experiment: inhibition by Lys-D-Ala-D-Ala of binding between vancomycin and peptide SEQ ID NO:1
Description: As an example, illustrated is the inhibition by Lys-D-Ala-D-Ala of specific binding between vancomycin and a peptide comprising the amino acid sequence of SEQ ID NO:1. To the wells of a 96 well plate coated with streptavidin was added 100 μl of a 0.2 μM solution of biotinylated peptide in buffer-T. After incubation, the wells were blocked by adding 200 μl of a 0.5 mM solution of biotin in buffer-T. The plates were then washed three times with buffer-T. Serial dilutions of Lys-D-Ala-D-Ala were prepared, and added individually to the wells such that Lys-D-Ala-D-Ala ranged in a final concentration of from about 1 μM to about 200 μM (in a volume of 35 μl). Also added to each well was 35 μl of biotinylated vancomycin (20 nM final concentration), and the plate was incubated at 30 minutes for room temperature. The wells were then washed three times with buffer-T, followed by the addition of 100 μl of streptavidin-alkaline phosphatase conjugate (1 mg/ml diluted 1:500 in buffer-T). Following a 30 minute incubation, the wells were washed five times with buffer-T. Added to each well was 100 μl of pNPP, followed by colorimetric detection after 12 minutes at an absorbance of 405 nm.

[2] = binding assay for gentamycin, similar format as for vancomycin; details: aminoglycoside antibiotic
[3] = binding assay: biotinylated synthetic peptide on streptavidin plate, titrated with biotinylated glycopeptide antibiotic
Description: A typical binding assay for glycopeptide antibiotic was performed according to the following procedure. Briefly, synthetic peptides comprising an amino acid sequence to be characterized for binding were biotinylated to facilitate immobilization on streptavidin-coated 96-well plates. The microtiter plates were coated with streptavidin by adding 50 μl of a 10 μg/ml streptavidin solution in 0.1M NaHCO3, and incubating the plates for at least 3 hours. The plate wells were blocked by adding 150 μl of a 1% BSA solution in 0.1 NaHCO3 with incubation for at least 2 hours, and the plates were stored at 4° C. until needed. Before use, the streptavidin plates were washed extensively in buffer-T. Added per well was peptide (100 μl 0.1 μM peptide in buffer-T), and then incubated for 30 minutes at room temperature with shaking. 200 μl of 0.5 mM biotin in buffer-T was added to block the remaining streptavidin sites, and plates were incubated for 15 minutes at room temperature. Plates were then washed with buffer-T to remove the excess biotin and peptide. Serial dilutions of biotinylated glycopeptide antibiotic in buffer-T were added (100 μl) to each well, representing a range of concentrations between 100 pM and 100 μM. Plates were incubated for 30 minutes at room temperature with shaking prior to washing several times with buffer-T. Glycopeptide antibiotic was then detected by adding 100 μl of a diluted streptavidin-alkaline phosphatase conjugate to each well and incubated at room temperature for 30 minutes. Excess conjugate was removed by repeated washes with buffer-T, and the amount of alkaline phosphatase remaining in the well was detected using a pNPP (para-nitrophenylphosphate) colorimetric enzymatic assay. The relative amount of glycopeptide antibiotic captured by the peptides was determined by measuring the absorbance at 405 nm of the colored product of the alkaline phosphatase reaction. The EC50 was determined for each peptide relative to the binding affinity for the glycopeptide antibiotic used in the assay, as shown in Table 1 (with vancomycin as a representative glycopeptide antibiotic).
A typical binding assay for glycopeptide antibiotic was performed according to the following procedure. The concentrations of the alkaline-phosphatase linked variant peptides were normalized to equal levels based on the alkaline-phosphatase activity as determined in a kinetic assay with the alkaline-phosphatase specific chromogenic substrate p-nitrophenyl phosphate (p-NPP). A streptavidin coated microtiter plate was coated with biotinylated vancomycin. Serial dilutions of normalized alkaline-phosphatase linked peptides were allowed to bind to the immobilized vancomycin and detected by addition of the alkaline-phosphatase specific chromogenic substrate p-NPP. Relative affinity for peptide binding to the immobilized vancomycin was determined by measuring the absorbance at 405 nm of the colored product of the alkaline phosphatase reaction. […] EC50 values for the synthetic peptides binding to vancomycin were determined as described in Example 1 and are shown in Table 3. Preferred are peptides that bind to glycopeptide antibiotic with binding affinity of EC50 of less than or equal to about 1 μM, and more preferably, in the nanomolar range (e.g., <0.1 μM).

S. aureus MZ100 = experiment: in vitro infection model on titanium pins, colony counts; type: cell-based; details: composition 5 μM + vancomycin 100 μM, two hours incubation
Description: Acetone-sterilized titanium pins (1 mm diameter, 12 mm long) were first washed in PBS. These pins were then incubated in a solution (PBS) containing the respective composition (5 μM)+vancomycin (100 μM) for 15 minutes at room temperature, with intermittent inversion for coating. Each pin was then washed extensively in PBS and placed in 30 μL of S. aureus MZ100 cultured at 10^6 colony forming units (cfu) per mL, according to methods above. The coated pins were then inoculated in 30 mm lengths of 1.5 mm diameter silicone tubing, with closed ends. After incubation for two hours with shaking, the pin was placed in a new tube containing 1 mL PBS. After inverting several times, PBS was aspirated, and replaced with a fresh 1 mL of PBS. The pins were then sonicated at 20 kHz for four cycles of 15 seconds each. Supernatants (100 μL) and dilutions were plated on trypticase soy agar (TSA) plates, incubated for 24 hours at 37° C., and colonies were counted. An assay control included the same steps of the infection model, except that the pin is uncoated pin (i.e., without composition according to the presently disclosed subject matter bound thereto) (“Control”). As representative examples, compositions comprising the amino acid sequences of SEQ ID NOs: 125 and 126 were tested for antimicrobial activity using the in vitro infection model (see, Table 7, “A” & “B”, respectively).

vancomycin [4] = experiment: retention of BODIPY-FL vancomycin on titanium beads with the peptide composition, followed from 45 minutes to 100 hours
vancomycin [5] = experiment: titanium beads with 10 µM peptide composition and 200 µM vancomycin, washed, vancomycin eluted with HCl and measured by HPLC

**Q.** With Lys-D-Ala-D-Ala (Lys-[dA]-[dA]) as the molecule, how does the “inhibition of binding between vancomycin and peptide” value ([1]; Lys-D-Ala-D-Ala between 100 μM to 200 μM) read?
**A.** ~100%

**Q.** What about the IC50 ([1]; biotinylated vancomycin 20 nM, read-out: concentration needed to inhibit about 50% of the binding between vancomycin and peptide) of the same molecule?
**A.** ~10000 nM

**Q.** For CLIDMYGVCHNFDGAYDS [compound 1], which “binding affinity for gentamycin” value [2] is on record?
**A.** lacked significant binding affinity

**Q.** And the EC50 ([3]; synthetic peptides binding to vancomycin, read-out: EC50, binding to glycopeptide antibiotic)?
**A.** < 0.1 µM

**Q.** And the EC50 ([3]; synthetic peptides, biotinylated vancomycin, read-out: EC50 (μM) for vancomycin binding)?
**A.** 0.1 µM

**Q.** With “AUD-AUD-AUD-SSCLIDIYGVCHNFDAY-(miniPEG)2-HKKNNPKKKNKTRGSSK ([Aun][Aun][Aun]SSCLIDIYGVCHNFDAY[miniPEG][miniPEG]HKKNNPKKKNKTRGSSK; disulfide 6-14 (inferred)) [SEQ ID NO: 126]” as the molecule, how does the “# of bacterial colonies (CFU)” value (S. aureus MZ100) read?
**A.** <10 CFU

**Q.** Which “# of bacterial colonies (CFU)” value (S. aureus MZ100) does the source give for “Myr-Ahx-SSCLIDIYGVCHNFDAY-(miniPEG)2-HKKNNPKKKNKTRGSSK ({Myristoyl-Ahx}-SSCLIDIYGVCHNFDAY[miniPEG][miniPEG]HKKNNPKKKNKTRGSSK; disulfide 3-11 (inferred)) [SEQ ID NO: 125]” here?
**A.** 100 CFU

**Q.** With H-SSSCLIDMYGVCHNFDGAYDSSRG[(miniPEG)2]SSHRTNHKKNNPKKKNKTRGSSGK-NH2 (disulfide 4-12 (inferred)) [peptide composition comprising SEQ ID NO: 120] as the molecule, how does the percent of BODIPY-FL vancomycin remaining on the metal surface after 3 hours (vancomycin [4]) read?
**A.** 50%

**Q.** What about the Picomoles vancomycin/cm^2 (picomoles/cm^2) (vancomycin [5]) of the same molecule?
**A.** 61
